Results as given in patent US8802715B2, “Crystal forms of saxagliptin and processes for preparing same” (AstraZeneca AB, priority 2007, dated 2014).

How the values were obtained:
[1] = Weight gain with relative humidity (hygroscopicity); type: physicochemical
[2] = Solid form stability of crystals stored at ambient conditions; type: physicochemical; conditions: product likely form H2-1
Procedure: 100 mg Saxagliptin mono HCl salt form H2-1 (dihydrate) (prepared employing a procedure similar to that described in Example 5) were added to 2 ml of dry ethanol (dried over molecular sieves). The resulting mixture was heated at 45° C. until all form H^2-1 compound was dissolved, at which time heating was discontinued. Crystallization was initiated when the temperature was cooled to 25° C.±2° C. (close to room temperature). Crystals of saxagliptin HCl salt Pattern P-5 were recovered, which crystals were maintained as a slurry in a sealed container at 25° C.±2° C.

hygroscopicity ([1]; from weight gain in the range 25-75% RH at 25° C.) | weight gain ([1]; range 25-75% RH at 25° C.) | conversion of crystal form on storage [2] | Structure (SMILES)
non-hygroscopic | 0.1% | – | N#C[C@@H]1C[C@@H]2C[C@@H]2N1C(=O)[C@@H](N)C12CC3CC(CC(O)(C3)C1)C2.O [free base monohydrate (form H−1)]
– | – | underwent significant conversion | Cl.N#C[C@@H]1C[C@@H]2C[C@@H]2N1C(=O)[C@@H](N)C12CC3CC(CC(O)(C3)C1)C2 [saxagliptin HCl salt Pattern P-5]
